From patent US8216550B2, “Luciferins” (University of Massachusetts, priority 2007, dated 2012)

Key:
[1] = tested on: Firefly luciferase; test: Luciferase assay: emission spectrum of purified luciferase with luciferin substrates; settings: substrate of purified firefly luciferase, pH 7.8, Spex Fluoromax-3
[2] = tested on: Firefly luciferase; settings: amino-luciferin as substrate, literature value; cited from earlier work

Compound	maximal emission [1] [nm]	maximal emission reported by White et al., JACS (1966) 88: 2015 [2] [nm]
O=C(O)[C@H]1CSC(c2nc3ccc(O)cc3s2)=N1 [D-luciferin, reference compound]	555	
CN(C)c1ccc2nc(C3=N[C@@H](C(=O)O)CS3)sc2c1 [dimethylamino-luciferin (1a), D-2-(6′-dimethylamino-2′-benzothiazolyl)-Δ^2-thiazoline-4-carboxylic acid]	624	
CCNc1ccc2nc(C3=N[C@@H](C(=O)O)CS3)sc2c1 [ethylamino, D-2-(6′-ethylamino-2′-benzothiazolyl)-Δ^2-thiazoline-4-carboxylic acid]	607	
CC(C)Nc1ccc2nc(C3=N[C@@H](C(=O)O)CS3)sc2c1 [isopropylamino, D-2-(6′-isopropylamino-2′-benzothiazolyl)-Δ^2-thiazoline-4-carboxylic acid]	607	

Continued, in another order:

maximal emission [1] [nm]	Compound	maximal emission reported by White et al., JACS (1966) 88: 2015 [2] [nm]
607	CCCCNc1ccc2nc(C3=N[C@@H](C(=O)O)CS3)sc2c1 [n-butylamino, D-2-(6′-butylamino-2′-benzothiazolyl)-Δ^2-thiazoline-4-carboxylic acid]	
593	amino-luciferin [reference compound]	605
